target: BK channels (CHO cells permanently transfected with cloned hSlo, α-hSlo and β-bSlo) (Homo sapiens, UniProt Q12791); test: Em-Assay: fluorescence membrane potential assay with voltage sensitive dye DiBAC(4)3; format: cell-based; settings: ratio of the compound effect (50 μM) compared to the maximal effect of NS004 (25 or 50 μM)
Text: The large conductance, voltage-dependent and Ca^2+-activated potassium channel BK is a potassium selective ion channel and belongs to the subfamily of KCa channels. Four BK alpha-subunits form a functional channel that can be regulated by intracellular Ca^2+ concentration, membrane voltage, and other mechanisms like phosphorylation states or beta subunits. To test the biological activity of the compounds, we applied two different techniques, a fluorescence based assay using a voltage sensitive dye (Em-Assay) as well as exploiting electrophysiological methods.
CHO cells permanently transfected with cloned hSlo (α-hSlo and β-bSlo), yielding typical BK potassium currents (Zhou et al., Pflügers Arch., 436: 725-734 (1998), were used for the evaluation of compound activity. Activation or inhibition of BK channels in these cells leads to a change of the electrochemical gradient causing a hyperpolarized or depolarised membrane potential, respectively.
To determine changes in the membrane potential of the cells we used the voltage sensitive dye DiBaC(4)3 (Molecular Probes) in a kinetic assay system using a fluorescent plate reader (Manning and Sontheimer, J. Neurosci. Meth., 91: 73-81 (1999). The anionic bis-oxonol DiBAC(4)3 is a voltage sensitive dye which partitions from the extracellular environment into the cell where it reversibly binds to intracellular proteins, a kinetic process depending on the membrane potential of the cell. At depolarised potentials (i.e. at a reduced K^+ efflux due to blocked K^+ channels) the dye accumulates in the cell leading to an increased fluorescence intensity, due to its increased fluorescence if bound to cellular proteins. At hyperpolarized potentials (i.e. at an increased K^+ efflux due to the opening of K^+ channels), the dye partitions out of the cell causing a decreased fluorescence intensity.
hslo transfected CHO cells where maintained in DMEM supplemented with 10% FCS, 250 μg/ml Geneticin, 100 μg/m Hygromycin, 1×HT-Supplement, and 1×Non-essential Amino Acids and cultured in a humidified CO2 incubator. After trypsination, cells where plated with a density of 5×10^4 cells per well on a clear 96-well plate and incubated for 24 h. Cells where washed once with PBS, once with PBS containing 20 mM HEPES (adjusted to pH 7.4 with NaOH) and 2 μM DiBAC(4)3 (DPBS-DiBAC solution). 180 μl of the dPBS-DiBAC solution was then added to the cells and the plate incubated for 30-60 min at 37° C. During this time the dye could partition into the cells and reach a certain steady-state distribution, depending on the resting membrane potential. Test and reference compounds were stored as DMSO stock solutions and diluted in dPBS-DiBAC solution to the desired concentration.
Fluorescence intensity (Ex.: 485 nm/Em.: 520 nm) of each well was detected in the plate reader (Fluostar, BMG) every 60 seconds. After recording the baseline fluorescence for 7 minutes, 20 μl test- and reference compounds were added and the fluorescence intensity was detected for additional 15 minutes. Background was subtracted, data values were normalized and expressed as a change in fluorescence intensity against time. The change in fluorescence intensity caused by the test compounds was evaluated, compared to the effect of the reference compound NS004, and the ratio was determined (see Table I).

Sequence of BK channels (CHO cells permanently transfected with cloned hSlo, α-hSlo and β-bSlo) (Q12791 whole entry): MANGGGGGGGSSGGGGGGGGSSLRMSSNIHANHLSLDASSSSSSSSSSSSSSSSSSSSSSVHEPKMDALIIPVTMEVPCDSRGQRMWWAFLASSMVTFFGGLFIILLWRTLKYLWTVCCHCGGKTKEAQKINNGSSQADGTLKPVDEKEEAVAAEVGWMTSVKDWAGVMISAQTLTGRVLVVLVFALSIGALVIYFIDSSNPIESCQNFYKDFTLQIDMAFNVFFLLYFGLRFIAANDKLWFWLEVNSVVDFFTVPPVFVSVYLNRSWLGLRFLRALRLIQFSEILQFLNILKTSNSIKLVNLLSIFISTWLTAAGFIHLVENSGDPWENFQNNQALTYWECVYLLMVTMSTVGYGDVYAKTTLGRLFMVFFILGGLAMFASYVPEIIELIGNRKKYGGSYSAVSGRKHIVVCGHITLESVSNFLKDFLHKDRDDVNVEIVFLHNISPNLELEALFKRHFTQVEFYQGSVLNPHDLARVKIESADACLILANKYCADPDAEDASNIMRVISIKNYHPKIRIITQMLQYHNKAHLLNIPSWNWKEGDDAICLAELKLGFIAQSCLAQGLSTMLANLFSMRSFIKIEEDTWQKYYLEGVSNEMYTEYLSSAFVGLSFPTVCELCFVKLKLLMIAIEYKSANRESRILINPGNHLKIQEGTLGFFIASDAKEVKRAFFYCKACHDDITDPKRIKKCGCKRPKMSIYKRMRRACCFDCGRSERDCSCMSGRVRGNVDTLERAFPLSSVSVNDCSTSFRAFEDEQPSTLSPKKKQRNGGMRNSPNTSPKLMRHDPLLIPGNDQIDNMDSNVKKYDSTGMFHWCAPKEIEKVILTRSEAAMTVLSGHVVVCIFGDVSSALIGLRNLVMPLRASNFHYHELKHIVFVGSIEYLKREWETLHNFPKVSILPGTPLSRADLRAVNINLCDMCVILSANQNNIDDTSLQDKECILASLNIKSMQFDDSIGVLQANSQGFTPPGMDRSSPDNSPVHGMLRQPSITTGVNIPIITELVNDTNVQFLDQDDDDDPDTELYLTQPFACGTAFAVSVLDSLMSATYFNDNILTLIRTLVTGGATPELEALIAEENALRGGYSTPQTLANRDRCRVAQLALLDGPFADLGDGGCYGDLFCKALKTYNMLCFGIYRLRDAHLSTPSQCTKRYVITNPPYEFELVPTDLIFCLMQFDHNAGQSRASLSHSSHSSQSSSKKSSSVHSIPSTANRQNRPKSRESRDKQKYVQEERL
Sequence of BK channels (CHO cells permanently transfected with cloned hSlo, α-hSlo and β-bSlo) (Q28067 whole entry partner): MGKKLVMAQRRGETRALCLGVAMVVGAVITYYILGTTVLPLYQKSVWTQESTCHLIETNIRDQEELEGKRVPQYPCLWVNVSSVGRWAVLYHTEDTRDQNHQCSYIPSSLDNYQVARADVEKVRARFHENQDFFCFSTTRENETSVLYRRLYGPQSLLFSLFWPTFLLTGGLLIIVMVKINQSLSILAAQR

Compound	Em effect
COc1cc2c(c(OC)c1)C(c1ccc(O)cc1)N(C(=O)c1cccc(C(F)(F)F)c1)CC2 (stereo not shown) [Compound 18, [1-(4-Hydroxy-phenyl)-6,8-dimethoxy-3,4-dihydro-1H-isoquinolin-2-yl]-(3-trifluoromethyl-phenyl)-methanone]	+ (0-1=+)
COc1cc2c(c(OC)c1)C(c1cccc(OC(F)(F)F)c1)N(S(=O)(=O)c1cc(C(F)(F)F)ccc1[N+](=O)[O-])CC2 (stereo not shown) [Compound 34, 6,8-Dimethoxy-2-(2-nitro-5-trifluoromethyl-benzenesulfonyl)-1-(3-trifluoromethoxy-phenyl)-1,2,3,4-tetrahydro-isoquinoline]	+ (0-1=+)
COc1cc2c(c(OC)c1)C(c1ccc(O)cc1)N(C(=O)c1cccc3ccccc13)CC2 (stereo not shown) [Compound 17, [1-(4-Hydroxy-phenyl)-6,8-dimethoxy-3,4-dihydro-1H-isoquinolin-2-yl]-naphthalen-1-yl-methanone]	+ (0-1=+)
COc1cc2c(c(OC)c1)C(c1ccc(O)cc1)N(C(=O)CCCCBr)CC2 (stereo not shown) [Compound 10, 5-Bromo-1-[1-(4-hydroxy-phenyl)-6,8-dimethoxy-3,4-dihydro-1H-isoquinolin-2-yl]-pentan-1-one]	+ (0-1=+)
COc1cc2c(c(OC)c1)C(c1ccc(O)cc1)N(C(=O)c1ccc(C(F)(F)F)cc1)CC2 (stereo not shown) [Compound 20, [1-(4-Hydroxy-phenyl)-6,8-dimethoxy-3,4-dihydro-1H-isoquinolin-2-yl]-(4-trifluoromethyl-phenyl)methanone]	+ (0-1=+)
COc1cc2c(c(OC)c1)C(c1ccc(O)cc1)N(C(=O)c1sc3ccccc3c1Cl)CC2 (stereo not shown) [Compound 24, (3-Chloro-benzo[b]thiophen-2-yl)-[1-(4-hydroxy-phenyl)-6,8-dimethoxy-3,4-dihydro-1H-iso-quinolin-2-yl]-methanone]	+ (0-1=+)
COc1cc2c(c(OC)c1)C(c1ccc(O)cc1)N(C(=O)c1ccc3c(c1)OCO3)CC2 (stereo not shown) [Compound 26, Benzo[1,3]dioxol-5-yl-[1-(4-hydroxy-phenyl)-6,8-dimethoxy-3,4-dihydro-1H-isoquinolin-2-yl]-methanone]	+ (0-1=+)
COc1cc2c(c(OC)c1)C(c1ccc(O)cc1)N(C(=O)c1ccc(C(C)(C)C)cc1)CC2 (stereo not shown) [Compound 14, (4-tert-Butyl-phenyl)-[1-(4-hydroxy-phenyl)-6,8-dimethoxy-3,4-dihydro-1-H-isoquinolin-2-yl]-methanone]	+ (0-1=+)
COc1cc2c(c(OC)c1)C(c1ccc(O)cc1)N(C(=O)C1CCCC1)CC2 (stereo not shown) [Compound 19, Cyclopentyl-[1-(4-hydroxy-phenyl)-6,8-dimethoxy-3,4-dihydro-1H-isoquinolin-2-yl]-methanone]	+ (0-1=+)
COc1cc2c(c(OC)c1)C(c1ccc(O)cc1)N(C(=O)CCC1CCCCC1)CC2 (stereo not shown) [Compound 23, 3-Cyclohexyl-1-[1-(4-hydroxy-phenyl)-6,8-dimethoxy-3,4-dihydro-1H-isoquinolin-2-yl]-propan-1-one]	+ (0-1=+)
COc1cc2c(c(OC)c1)C(c1ccc(-c3ccccc3)cc1)N(C(=O)c1ccc(C(F)(F)F)cc1F)CC2 (stereo not shown) [Compound 5, (1-Biphenyl-4-yl-6,8-dimethoxy-3,4-dihydro-1H-isoquinolin-2-yl)-(2-fluoro-4-trifluoromethyl-phenyl)-methanone]	+ (0-1=+)
COc1cc2c(c(OC)c1)C(c1ccc(O)cc1)N(C(=O)c1ccc(-c3ccccc3)cc1)CC2 (stereo not shown) [Compound 15, Biphenyl-4-yl-[1-(4-hydroxy-phenyl)-6,8-dimethoxy-3,4-dihydro-1H-isoquinolin-2-yl]-methanone]	+ (0-1=+)
COc1cc2c(c(OC)c1)C(c1ccc(-c3ccccc3)cc1)N(C(=O)c1ccc(C(F)(F)F)cc1)CC2 (stereo not shown) [Compound 4, (1-Biphenyl-4-yl-6,8-dimethoxy-3,4-dihydro-1H-isoquinolin-2-yl)-(4-trifluoromethylphenyl)-methanone]	+ (0-1=+)
COc1cc2c(c(OC)c1)C(c1ccc(O)cc1)N(C(=O)c1cccs1)CC2 (stereo not shown) [Compound 25, [1-(4-Hydroxy-phenyl)-6,8-dimethoxy-3,4-dihydro-1H-iso-quinolin-2-yl]-thiophen-2-yl-methanone]	+ (0-1=+)
(3,5-Bis-trifluoromethoxy-phenyl)-[6,8-dimethoxy-1-(3-trifluoromethoxy-phenyl)-3,4-dihydro-1H-iso-quinolin-2-yl]-methanone [Compound 33]	+ (0-1=+)
COc1cc2c(c(OC)c1)C(c1ccc(O)cc1)N(C(=O)c1cnc3ccccc3n1)CC2 (stereo not shown) [Compound 16, [1-(4-Hydroxy-phenyl)-6,8-dimethoxy-3,4-dihydro-1H-isoquinolin-2-yl]-quinoxalin-2-yl-methanone]	+ (0-1=+)
COc1cc2c(c(OC)c1)C(C)N(C(=O)c1cccc([N+](=O)[O-])c1)CC2 (stereo not shown) [Compound 38, (6,8-Dimethoxy-1-methyl-3,4-dihydro-1H-isoquinolin-2-yl)-(3-nitro-phenyl)-methanone]	+ (0-1=+)
COc1cc2c(c(OC)c1)C(c1ccc(-c3ccccc3)cc1)N(C(=O)c1ccc(C(C)(C)C)cc1)CC2 (stereo not shown) [Compound 6, (1-Biphenyl-4-yl-6,8-dimethoxy-3,4-dihydro-1H-isoquinolin-2-yl)-(4-tert-butyl-phenyl)-methanone]	+ (0-1=+)
COc1cc2c(c(OC)c1)C(c1ccc(O)cc1)N(C(=O)c1ccccc1OC(F)(F)F)CC2 (stereo not shown) [Compound 13]	+ (0-1=+)
COc1cc2c(c(OC)c1)C(c1ccc(-c3ccccc3)cc1)N(C(=O)c1cccc(Br)c1)CC2 (stereo not shown) [Compound 3, (1-Biphenyl-4-yl-6,8-dimethoxy-3,4-dihydro-1H-isoquinolin-2-yl)-(3-bromo-phenyl) methanone]	+ (0-1=+)
COc1cc2c(c(OC)c1)C(c1ccc(-c3ccccc3)cc1)N(C(=O)c1cc(C(F)(F)F)cc(C(F)(F)F)c1)CC2 (stereo not shown) [Compound 8, (1-Biphenyl-4-yl-6,8-dimethoxy-3,4-dihydro-1H-isoquinolin-2-yl)-(3,5-bis-trifluoromethyl-phenyl)methanone]	+ (0-1=+)
COc1ccc(C(=O)N2CCc3cc(OC)cc(OC)c3C2c2ccc(-c3ccccc3)cc2)cc1 (stereo not shown) [Compound 1, (1-Biphenyl-4-yl-6,8-dimethoxy-3,4-dihydro-1H-isoquinolin-2-yl)-(4-methoxy-phenyl)-methanone]	+ (0-1=+)
COc1cc2c(c(OC)c1)C(c1ccc(O)cc1)N(C(=O)CCc1ccccc1)CC2 (stereo not shown) [Compound 12]	+ (0-1=+)
COc1cc2c(c(OC)c1)C(c1cccc(OC(F)(F)F)c1)N(C(=O)c1ccc(NC(C)=O)cc1)CC2 (stereo not shown) [Compound 32, N-{4-[6,8-Dimethoxy-1-(3-trifluoro-methoxy-phenyl)-3,4-dihydro-1H-isoquinoline-2-carbonyl]-phenyl}-acetamide]	+ (0-1=+)
COc1cc2c(c(OC)c1)C(c1ccc(-c3ccccc3)cc1)N(C(=O)c1ccc(OC(F)(F)F)cc1)CC2 (stereo not shown) [Compound 7, (1-Biphenyl-4-yl-6,8-dimethoxy-3,4-dihydro-1H-isoquinolin-2-yl)-(4-trifluoromethoxy-phenyl)-methanone]	+ (0-1=+)
COc1cc2c(c(OC)c1)C(c1cccc(OC(F)(F)F)c1)N(C(C)=O)CC2 (stereo not shown) [Compound 29, 1-[6,8-Dimethoxy-1-(3-trifluoromethoxy-phenyl)-3,4-dihydro-1H-isoquinolin-2-yl]-ethanone]	++ (>1-1.5=++)
COc1cccc(C(=O)N2CCc3cc(OC)cc(OC)c3C2c2ccc(O)cc2)c1 (stereo not shown) [Compound 9, [1-(4-Hydroxy-phenyl)-6,8-dimethoxy-3,4-dihydro-1H-isoquinolin-2-yl]-(3-methoxy-phenyl)-methanone]	+ (0-1=+)
COc1cc2c(c(OC)c1)C(c1ccc(O)cc1)N(C(=O)CCC1CCCC1)CC2 (stereo not shown) [Compound 21, 3-Cyclopentyl-1-[1-(4-hydroxy-phenyl)-6,8-dimethoxy-3,4-dihydro-1H-isoquinolin-2-yl]-propan-1-one]	+++ (>1.5=+++)
